Reference: patent publication US11116741B2, “Method for the treatment of valvular heart disease comprising administering a composition comprising sarpogrelate” (CEVA SANTE ANIMALE, priority 2017, dated 2021)
“Also recorded” adds a separate entry of the source.

Tests used:
[1] = Body weight, food intake, water intake, systolic blood pressure and heart rate in the NdF mouse model; type: in vivo, mice; details: for Water intake: estimation of the water intake per cage per day: g = ml
Description: (§1) Before the start of the experiment, baseline systolic blood pressure, heart rate and body weight were measured. […] The dose of sarpogrelate administered was 2 mg/kg/day. The experiment started two days after the subcutaneous implantation so as to allow the activation of the mini-osmotic pump. Systolic blood pressure, heart rate and body weight were measured each week until the end of the experiment. At the term (day 28), urinary samples were collected from mice to determine 5-hydroxy-indol acetic acid concentration (5-HIAA which is a serotonin metabolite).

[2] = Blood 5-HT and urine 5-HIAA concentrations in mice given NdF by mini-osmotic pump; type: in vivo
Description: (§2) These lesions appear as endothelial cells recruitment and migration into the valvular leaflets with intense production of extracellular matrix.
as §1
Then, mice were euthanized using an injection of a […] dose of pentobarbital followed by an intra-cardiac blood puncture and whole blood serotonin concentration was determined.
All plasma was collected and analyzed in a single run.

mitral valve leaflet = experiment: Histological morphometric analysis of mitral valve (thickness, cellularity) in NdF induced mitral remodeling; type: in vivo, mice
Description: as §2, §1
For morphometric analysis, one sagittal section (5 μm in thickness) is obtained after paraffin embedding and stained with hematoxylin and eosin stain. In each section, mitral valves are examined and cellularization counted. Extreme care is taken in sectioning the heart so that the valves are mainly cut transversely (with the attachment sides of the leaflets visible on both ends of the valve).
Valve histological morphometric analysis is performed visually using a microscope (Leica DM750®, Germany) with a 40× calibrated objective connected to a camera and a data acquisition and analysis system (Leica/Microsystems®LAS V4.8) by a single operator. Practically, on each section, the operator applies a large square of 250 μm×250 μm divided in 100 equal parts of 25 μm×25 μm each. For the quantification, the whole mitral valve leaflet section is divided in three equal parts. The proximal region is the one nearest the base cusp, followed by the medial and the distal regions. The proximal, medial and distal parts thicknesses are measured on three distinct sites in each region. The mean result is expressed in μm, in table 8.
The density of endothelial cells is evaluated in proximal, medial and distal regions. The numbers of cells is determined on a leaflet length of 25×4 μm (100 μm2). The result (mean) is expressed in number of cells per 100 μm2.

[3] = molecular target: 5-HT2A receptor compared to the 5-HT2B one (Homo sapiens, UniProt P28223); details: in words; Life Sci. 73, 193-207; cited from earlier work
Chain of 5-HT2A receptor compared to the 5-HT2B one (P28223 whole entry): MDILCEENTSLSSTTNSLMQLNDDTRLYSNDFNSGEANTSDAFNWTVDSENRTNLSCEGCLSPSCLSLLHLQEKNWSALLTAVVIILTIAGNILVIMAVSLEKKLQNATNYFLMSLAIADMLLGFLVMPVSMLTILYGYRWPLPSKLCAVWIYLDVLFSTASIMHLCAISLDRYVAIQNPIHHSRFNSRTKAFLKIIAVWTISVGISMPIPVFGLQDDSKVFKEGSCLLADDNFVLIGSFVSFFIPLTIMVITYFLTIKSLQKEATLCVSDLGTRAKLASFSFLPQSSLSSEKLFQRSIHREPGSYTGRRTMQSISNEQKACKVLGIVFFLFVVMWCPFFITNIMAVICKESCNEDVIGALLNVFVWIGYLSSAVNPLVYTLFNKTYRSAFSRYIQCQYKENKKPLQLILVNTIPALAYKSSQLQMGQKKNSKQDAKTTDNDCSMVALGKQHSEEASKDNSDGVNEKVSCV

Q: Which results are given for `C[C@H](N)Cc1cccc(C(F)(F)F)c1` [NdF, nordexfenfluramine]?
A: Body weight ([1]; Week 0 (baseline)): 25.10 g; Heart rate ([1]; Week 0 (baseline)): 539.7 beats/min; Systolic blood pressure ([1]; Week 0 (baseline)): 100.2 mmHg; Body weight ([1]; Week 1): 26.20 g; Food intake: estimation of the food intake for each mouse per week ([1]; Week 1): 32.83 g; Heart rate ([1]; Week 1): 579.5 beats/min; Systolic blood pressure ([1]; Week 1): 108.9 mmHg; Water intake: estimation of the water intake per cage per day ([1]; Week 1): 31.43 g; Food intake: estimation of the food intake for each mouse per week ([1]; Week 2): 30.71 g; Heart rate ([1]; Week 2): 571.8 beats/min; Systolic blood pressure ([1]; Week 2): 97.5 mmHg; Water intake: estimation of the water intake per cage per day ([1]; Week 2): 31.86 g; Body weight ([1]; Week 3): 27.20 g; Food intake: estimation of the food intake for each mouse per week ([1]; Week 3): 35.13 g; Heart rate ([1]; Week 3): 498.0 beats/min; Water intake: estimation of the water intake per cage per day ([1]; Week 3): 32.14 g; Body weight ([1]; Week 4): 26.50 g; Food intake: estimation of the food intake for each mouse per week ([1]; Week 4): 26.38 g; Heart rate ([1]; Week 4): 559.3 beats/min; Systolic blood pressure ([1]; Week 4): 99.5 mmHg; Water intake: estimation of the water intake per cage per day ([1]; Week 4): 33.07 g; Effect on total blood (plasma) concentration of serotonin (5-HT) ([2]; in words): increases; 5-HIAA ([2]; urine, day 28, mean, NdF 1 mg/kg/day, sarpogrelate 2 mg/kg/day): 10.62 mg/L; 5-HT ([2]; whole blood, day 28, mean, NdF 1 mg/kg/day, sarpogrelate 2 mg/kg/day): 2259.78 µg/L; Mitral valve thickness (mean) (mitral valve leaflet; day 28, mean of proximal, medial and distal parts, NdF 1 mg/kg/day, sarpogrelate 2 mg/kg/day): 67.467 μm; Endothelial cellularity (mean) (mitral valve leaflet; day 28, mitral valve): 9.988 cells/0.01 mm^2; Interstitial cellularity (mean) (mitral valve leaflet; day 28, mitral valve): 22.011 cells/0.01 mm^2; Effect on mitral valve thickness (mitral valve leaflet; in words): massive increase; Effect on valve interstitial cellularity (mitral valve leaflet; in words): increase

Q: Which results are given for `COc1cccc(CCc2ccccc2OCC(CN(C)C)OC(=O)CCC(=O)O)c1` (centres unmarked) [sarpogrelate]?
A: Effect on total blood (plasma) concentration of serotonin (5-HT) ([2]; in words): reduces; Effect on urinary 5-HIAA ([2]; in words): reduces; Effect on interstitial migration of endothelial cells (mitral valve leaflet; in words): reduces; Effect on mitral valve thickness (mitral valve leaflet; in words): nearly completely prevented; also recorded: markedly reduces; Effect on valve interstitial cellularity (mitral valve leaflet; in words): prevents the increase; Receptor subtype preference (5-HT2A vs 5-HT2B) [3]: preferably blocking the 5-HT2A receptor
